Experimental findings from ChEMBL document CHEMBL5126541, “Recent applications of vinyl sulfone motif in drug design and discovery” (Eur J Med Chem, 2022) are described below.

Data set [1] has as its system PC-12. The data set can be described thus: Neuroprotection against H2O2-induced cell injury in rat PC-12 cells assessed as cell viability preincubated for 3 hrs followed by H2O2 addition measured after 5 hrs by MTT assay. The data set is classed as functional. Particulars: time 8 hrs. (In general: Tetrazolium dyes change colour on reduction, which living cells bring about.)

For data set [2], the system named is Ebolavirus. As to the kind of experiment: Antiviral activity against Ebola virus pseudotyped infected in HEK293T cells assessed as reduction in viral cytopathic effect. Format: functional, organism-based. To be noted: Orthoebolavirus, HEK-293T. For orientation: Protection from cytopathic effect is a common read-out in antiviral testing.
Data set [3] concerns SARS-CoV. The data set can be described thus: Antiviral activity against SARS-CoV Live SARS-CoV assay and cytotoxicity assessed as reduction in viral cytopathic effect. Particulars: Severe acute respiratory syndrome-related coronavirus. The data set is classed as functional, organism-based.
Data set [4] relates to Human alphaherpesvirus 3. As to the kind of experiment: Antiviral activity against VZV strain Oka bearing wild type thymidine kinase assessed as reduction in virus induced cytopathogenicity. Format: functional, organism-based.
Data set [5] has as its target Acetylcholinesterase (Homo sapiens, UniProt P22303). The data set can be described thus: Inhibition of AChE (unknown origin) preincubated for 5 mins followed by […] measured after 5 mins by Ellman's method. (In general: Ellman's reagent forms a yellow product with free thiols.)
Data set [6] deals with T1, Cholinesterase (Homo sapiens, UniProt P06276). As to the kind of experiment: Inhibition of human serum BuChE preincubated for 5 mins followed by BuCh addition measured after 5 mins by Ellman's method.
T1 sequence (P06276 whole entry): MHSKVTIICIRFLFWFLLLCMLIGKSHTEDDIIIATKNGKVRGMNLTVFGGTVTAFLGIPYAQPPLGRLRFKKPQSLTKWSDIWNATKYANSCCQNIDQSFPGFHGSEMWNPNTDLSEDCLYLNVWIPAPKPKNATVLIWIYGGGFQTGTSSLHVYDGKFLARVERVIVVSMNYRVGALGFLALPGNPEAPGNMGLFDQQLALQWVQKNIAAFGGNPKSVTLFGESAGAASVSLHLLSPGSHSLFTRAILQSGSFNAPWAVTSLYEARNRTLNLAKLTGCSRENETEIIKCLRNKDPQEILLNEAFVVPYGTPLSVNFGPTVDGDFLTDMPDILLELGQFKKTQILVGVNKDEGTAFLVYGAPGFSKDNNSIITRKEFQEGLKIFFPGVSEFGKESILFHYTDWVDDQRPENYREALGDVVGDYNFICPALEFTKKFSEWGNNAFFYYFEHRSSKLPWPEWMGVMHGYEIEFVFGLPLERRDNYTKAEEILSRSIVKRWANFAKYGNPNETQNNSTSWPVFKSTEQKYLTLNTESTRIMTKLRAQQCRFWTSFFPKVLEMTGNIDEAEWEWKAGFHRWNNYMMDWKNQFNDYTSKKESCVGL
Data set [7] deals with Cholinesterase (Equus caballus, UniProt P81908). As to the kind of experiment: Inhibition of horse serum BuChE preincubated for 5 mins followed by BuCh addition measured after 5 mins by Ellman's method.
Sequence of Cholinesterase (Equus caballus, UniProt P81908) (P81908 whole entry): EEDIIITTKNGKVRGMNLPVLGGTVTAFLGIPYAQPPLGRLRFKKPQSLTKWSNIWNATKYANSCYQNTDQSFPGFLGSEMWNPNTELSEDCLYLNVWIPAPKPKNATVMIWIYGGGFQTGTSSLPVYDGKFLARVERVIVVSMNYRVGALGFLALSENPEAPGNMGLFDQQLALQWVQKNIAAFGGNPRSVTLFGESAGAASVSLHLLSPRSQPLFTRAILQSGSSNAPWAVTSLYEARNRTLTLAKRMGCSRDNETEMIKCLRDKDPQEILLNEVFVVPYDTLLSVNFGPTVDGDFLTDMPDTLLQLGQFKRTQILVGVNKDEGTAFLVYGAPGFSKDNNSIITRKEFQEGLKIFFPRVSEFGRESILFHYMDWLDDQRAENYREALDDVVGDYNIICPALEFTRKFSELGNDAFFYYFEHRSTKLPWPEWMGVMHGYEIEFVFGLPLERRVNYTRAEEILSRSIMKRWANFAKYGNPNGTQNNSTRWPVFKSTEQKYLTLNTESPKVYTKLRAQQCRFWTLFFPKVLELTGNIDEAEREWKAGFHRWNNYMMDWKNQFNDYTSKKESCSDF
Data set [8] deals with T1, Cholinesterase. The data set can be described thus: Binding affinity to BuChE (unknown origin) assessed as inhibition constant.
For data set [9], the species on record is Homo sapiens. As to the kind of experiment: Inhibition of PI3K (unknown origin) at 20 uM relative to control.
Data set [10] has as its system HeLa. The data set can be described thus: Cytotoxicity against human HeLa cells. Format: functional, cell-based. Particulars: pooled result: one value given for 5 cell lines, strains, targets or settings.
Data set [11] concerns SK-OV-3. The data set can be described thus: Cytotoxicity against human SK-OV-3 cells assessed as reduction in cell viability. The data set is classed as functional, cell-based.
The test system of data set [12] is PC-3. The data set can be described thus: Cytotoxicity against human PC-3 cells assessed as reduction in cell viability. Format: functional, cell-based.
In data set [13] the test system is OVCAR-3. The data set can be described thus: Cytotoxicity against human OVCAR-3 cells assessed as reduction in cell viability. Format: functional, cell-based.
Data set [14] in a line: Cytotoxicity against human SB2 cells assessed as reduction in cell viability. The data set is classed as functional, cell-based.
For data set [15], the system named is HT-29. As to the kind of experiment: Cytotoxicity against human HT-29 cells assessed as reduction in cell viability. The data set is classed as functional, cell-based.
Data set [16] relates to MeWo. The data set can be described thus: Cytotoxicity against human MeWo cells assessed as reduction in cell viability. Format: functional, cell-based.
Data set [17] deals with Telomerase reverse transcriptase (Homo sapiens, UniProt O14746). As to the kind of experiment: Inhibition of telomerase (unknown origin).
Sequence of Telomerase reverse transcriptase (O14746 whole entry): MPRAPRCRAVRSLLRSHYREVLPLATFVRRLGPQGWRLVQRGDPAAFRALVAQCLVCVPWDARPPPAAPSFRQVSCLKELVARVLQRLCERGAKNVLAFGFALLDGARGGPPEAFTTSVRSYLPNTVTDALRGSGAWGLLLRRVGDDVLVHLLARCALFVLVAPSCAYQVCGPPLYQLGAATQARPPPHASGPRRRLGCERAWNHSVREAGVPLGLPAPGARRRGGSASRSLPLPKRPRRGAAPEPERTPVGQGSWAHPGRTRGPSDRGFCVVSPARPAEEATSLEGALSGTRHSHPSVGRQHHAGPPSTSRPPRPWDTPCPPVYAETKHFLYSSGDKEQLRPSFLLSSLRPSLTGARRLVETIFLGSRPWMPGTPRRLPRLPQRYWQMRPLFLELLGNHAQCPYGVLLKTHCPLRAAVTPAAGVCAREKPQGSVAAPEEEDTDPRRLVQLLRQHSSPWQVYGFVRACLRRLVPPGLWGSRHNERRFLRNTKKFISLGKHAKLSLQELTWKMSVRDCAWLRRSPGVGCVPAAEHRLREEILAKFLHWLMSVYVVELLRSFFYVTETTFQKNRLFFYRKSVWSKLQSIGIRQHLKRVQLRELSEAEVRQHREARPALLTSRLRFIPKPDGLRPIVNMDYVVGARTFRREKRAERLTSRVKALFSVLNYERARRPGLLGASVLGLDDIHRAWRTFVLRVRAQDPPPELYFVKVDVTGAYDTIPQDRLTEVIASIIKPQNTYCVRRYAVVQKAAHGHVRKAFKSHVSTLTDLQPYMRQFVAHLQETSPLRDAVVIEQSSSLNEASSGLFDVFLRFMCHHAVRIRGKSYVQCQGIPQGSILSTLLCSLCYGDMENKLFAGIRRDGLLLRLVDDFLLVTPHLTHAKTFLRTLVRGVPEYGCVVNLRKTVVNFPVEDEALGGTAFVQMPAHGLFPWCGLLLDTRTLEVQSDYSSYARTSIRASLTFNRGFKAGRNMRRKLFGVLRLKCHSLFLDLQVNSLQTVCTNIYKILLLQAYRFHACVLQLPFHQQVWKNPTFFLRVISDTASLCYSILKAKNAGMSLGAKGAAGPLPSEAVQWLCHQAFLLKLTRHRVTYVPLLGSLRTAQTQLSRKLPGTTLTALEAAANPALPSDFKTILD
Data set [18] concerns A-375. As to the kind of experiment: Anticancer activity against human A-375 cells. The data set is classed as functional, cell-based.
Data set [19] has as its system MDA-MB-231. The data set can be described thus: Anticancer activity against human MDA-MB-231 cells. Format: functional, cell-based.
Data set [20] has as its system CCRF-CEM. As to the kind of experiment: Antiproliferative activity against human CEM cells treated for 96 hrs. Format: functional, cell-based.
The test system of data set [21] is HeLa. The data set can be described thus: Antiproliferative activity against human HeLa cells treated for 4 days. To be noted: 96 h. Format: functional, cell-based.
Data set [22] relates to L1210. As to the kind of experiment: Antiproliferative activity against mouse L1210 cells treated for 48 hrs. Format: functional, cell-based. To be noted: L1210, 48 h.
Data set [23] deals with Aspergillus niger. As to the kind of experiment: Antifungal activity against Aspergillus niger assessed as zone of inhibition. The data set is classed as functional.
The subject of data set [24] is Curvularia lunata. As to the kind of experiment: Antifungal activity against Cochliobolus lunatus assessed as zone of inhibition. Format: functional.
The test system of data set [25] is Fusarium solani. The data set can be described thus: Antifungal activity against Fusarium solani assessed as zone of inhibition. Format: functional.
For data set [26], the system named is Escherichia coli. As to the kind of experiment: Antimicrobial activity against Escherichia coli assessed as zone of inhibition. The data set is classed as functional.
Data set [27] relates to Klebsiella pneumoniae. The data set can be described thus: Antimicrobial activity against Klebsiella pneumoniae assessed as zone of inhibition. The data set is classed as functional.
In data set [28] the test system is Staphylococcus aureus. The data set can be described thus: Antimicrobial activity against Staphylococcus aureus assessed as zone of inhibition at 100 uM. The data set is classed as functional.
The test system of data set [29] is Bacillus subtilis. As to the kind of experiment: Antimicrobial activity against Bacillus subtilis assessed as zone of inhibition at 100 uM. Format: functional.
In data set [30] the test system is HUVEC. As to the kind of experiment: Antitubulin activity against HUVEC assessed as morphological changes of tube incubated for 6 hrs by inverted microscope. Format: functional, cell-based. Particulars: Homo sapiens.
A short description of data set [31]: Cytotoxicity against human HO-8910 cells incubated for 48 hrs by MTT assay. The data set is classed as functional, cell-based. To be noted: HO-8910, 48 h.
The nature of data set [32]: Cytotoxicity against HBMSC cells incubated for 48 hrs by MTT assay. The data set is classed as toxicity, cell-based. Particulars: human.
Data set [33] concerns ES-2. The data set can be described thus: Cytotoxicity against human ES2 cells incubated for 48 hrs by MTT assay. The data set is classed as functional, cell-based. Particulars: ES-2, 48 h.
The subject of data set [34] is K562. The data set can be described thus: Cytotoxicity against human K562 cells incubated for 48 hrs by MTT assay. The data set is classed as functional, cell-based. Particulars: K562, 48 h.
Data set [35] is described as follows: Permeability of the compound across blood brain barrier by PAMPA. Particulars: read-out: logBB (converted). Format: ADME, tissue-based.
The nature of data set [36]: Permeability across blood brain barrier assessed as central nervous system multi-parameter optimization score. Format: ADME, tissue-based.
The subject of data set [37] is BV-2. The data set can be described thus: Anti-infalmmatory activity in LPS-induced NO production in mouse BV-2 microglial cells preincubated for 3 hrs followed by LPS addition measured after 24 hrs by NO assay kit. Format: functional, cell-based.
Data set [38] concerns A549. As to the kind of experiment: Cytotoxicity against human A549 cells expressing EGFR incubated for 72 hrs by MTT assay. Format: functional, cell-based. Particulars: A549, 72 h.
Data set [39] relates to NCI-H1975. The data set can be described thus: Cytotoxicity against human NCI-H1975 cells expressing EGFR T790 mutant incubated for 72 hrs by MTT assay. Format: functional, cell-based. To be noted: NCI-H1975, 72 h.
The test system of data set [40] is A-431. As to the kind of experiment: Cytotoxicity against human A431 cells expressing EGFR incubated for 72 hrs by MTT assay. Format: functional, cell-based. Particulars: A-431, 72 h.

In general, IC50 refers to the concentration that gives 50% inhibition. In general, EC50 refers to the midpoint of the concentration-response curve. One may read the Ki as the equilibrium dissociation constant of an inhibitor or competing ligand from its target. A word on the inhibition: it is the relative decrease from the control value, in per cent. Read a low inhibition as a weak effect.

Sequence of Acetylcholinesterase (P22303 whole entry): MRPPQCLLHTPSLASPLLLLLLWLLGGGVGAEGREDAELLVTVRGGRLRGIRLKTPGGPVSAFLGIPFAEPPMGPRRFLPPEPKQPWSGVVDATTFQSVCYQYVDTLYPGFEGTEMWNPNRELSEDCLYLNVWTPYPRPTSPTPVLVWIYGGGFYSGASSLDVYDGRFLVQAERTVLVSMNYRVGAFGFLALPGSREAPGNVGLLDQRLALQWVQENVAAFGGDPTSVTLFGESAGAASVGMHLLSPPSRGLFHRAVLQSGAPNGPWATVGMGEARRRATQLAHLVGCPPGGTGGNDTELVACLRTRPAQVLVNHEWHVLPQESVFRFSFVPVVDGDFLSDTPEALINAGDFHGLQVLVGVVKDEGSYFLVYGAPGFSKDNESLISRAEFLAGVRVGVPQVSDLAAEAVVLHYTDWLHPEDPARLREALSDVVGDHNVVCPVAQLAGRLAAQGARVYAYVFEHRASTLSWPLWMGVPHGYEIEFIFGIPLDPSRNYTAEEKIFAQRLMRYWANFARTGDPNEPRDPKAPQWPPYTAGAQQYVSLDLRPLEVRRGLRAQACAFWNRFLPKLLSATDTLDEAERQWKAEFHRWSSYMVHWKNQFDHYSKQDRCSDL

As for `O=S(=O)(/C=C/c1ccc(O)c(O)c1)CCCc1ccccc1`, the Activity in [1] is on record as 94.5%.

On to `CC(C)N1CCN(C(=O)N[C@@H](Cc2ccccc2)C(=O)N[C@H](/C=C/S(=O)(=O)c2ccccc2)CCc2ccccc2)CC1`, for which the IC50 in data set [2] and in data set [3] was 0.04 nM each time.

For `O=c1[nH]c(=O)n([C@H]2C[C@H](O)[C@@H](CO)O2)cc1/C=C/Br` [BRIVUDINE], in [4], the EC50 is 20 nM.

With `COc1ccccc1/C=C/C=C(\Br)S(=O)(=O)F`, the IC50 was 79 nM in data set [5], 3620 nM in data set [6] and 21 nM in [7]. Further, the inhibition constant (Ki) in data set [8] was found to be 29 nM.

The compound `O=c1oc2ccc(Br)cc2cc1S(=O)(=O)Cc1ccc(F)cc1` displayed an inhibition in data set [9] of 50%. Further, half-maximal inhibition in data set [10] (IC50) was put at 29300 nM.

For `CC(C)(C)N1CCN(C(=O)N[C@@H](Cc2ccccc2)C(=O)N[C@H](/C=C/S(=O)(=O)c2ccccc2)CCc2ccccc2)CC1`, the IC50 in data set [2] and in data set [3] was 0.04 nM each time.

Turning to `C=C(CCCCCCCCCCCCCCCC)S(=O)(=O)CCC[N+](C)(C)C`, the IC50 in data set [11], in data set [12], in [13], in [14], in data set [15] and in [16] was 390 nM in each case.

For the compound `COCCN1CCN(C(=O)N[C@@H](Cc2ccccc2)C(=O)N[C@H](/C=C/S(=O)(=O)c2ccccc2)CCc2ccccc2)CC1`, the IC50 in [2] and in data set [3] was 0.04 nM each time.

In [17], `O=S(=O)(F)/C=C/c1ccc2ccccc2c1` came in with an IC50 below 1000 nM.

With `O=C(N[C@H](/C=C/S(=O)(=O)c1ccccc1)CCc1ccccc1)[C@H](Cc1ccccc1)NC(=O)N1CCN(c2ccccc2)CC1`, the half-maximal inhibitory concentration (IC50) in data set [2] and in data set [3] was 0.04 nM throughout.

Regarding `O=S(=O)(F)/C=C/C=C/c1ccc(/C=C/S(=O)(=O)F)cc1`, the half-maximal inhibitory concentration (IC50) is 1580 nM in [18], below 1000 nM in [17] and 3220 nM in [19].

`CC(=O)OC[C@H]1O[C@@H](n2cc(/C(Cl)=C\S(=O)(=O)c3ccc(C)cc3)c(=O)[nH]c2=O)C[C@@H]1OC(C)=O`: the IC50 in data set [20] was 11000 nM; in [21], 23000 nM; in data set [22] it was 5600 nM. Besides, in data set [4], the EC50 came out at 4000 nM.

Turning to `CC(=O)N1CCN(c2ccc(OCC3COC(Cn4ccnc4)(c4ccc(Cl)cc4Cl)O3)cc2)CC1` (centres undefined) [KETOCONAZOLE], the Activity in data set [23], in data set [24] and in [25] was above 36 mm throughout.

In the case of `O=C(c1ccc(Cl)cc1)c1c[nH]cc1S(=O)(=O)c1n[nH]cc1-c1ccccc1`, the Activity in [23] was above 26 mm; in [26], above 20 mm; in data set [24], above 26 mm; in data set [27] it was above 20 mm; in [28], above 25 mm; in data set [25], above 26 mm. Further, in data set [29], the Activity is on record as above 25 mm.

Turning to `COc1ccc(/C=C/S(=O)(=O)c2cc(OC)c(OC)c(OC)c2)cc1N`, the IC50 in [30] was 4250 nM.

In [17], `O=S(=O)(F)/C=C/c1ccc(-c2ccccc2)cc1` displayed an IC50 below 1000 nM.

Take `O=c1oc2ccc([N+](=O)[O-])cc2cc1S(=O)(=O)Cc1ccc(F)cc1`: in data set [9], the inhibition worked out at 50%. The midpoint of inhibition in data set [10], the IC50, lay at 18100 nM.

For `CN1CCN(C(=O)N[C@@H](Cc2ccccc2)C(=O)N[C@H](/C=C/S(=O)(=O)c2ccccc2)CCc2ccccc2)CC1` [K-777], in [2], the IC50 worked out at 0.36 nM.

`O=C(c1ccc(Cl)cc1)c1c[nH]cc1S(=O)(=O)c1c(-c2ccc(Cl)cc2)noc1-c1ccccc1`: the Activity in data set [23] is above 26 mm; in data set [26] it was above 20 mm; in [24], above 26 mm; in [27] it was above 20 mm; in data set [28] it was above 25 mm; in [25] it was above 26 mm. In [29], the Activity is recorded as above 25 mm.

Regarding `CC(=O)c1ccc(/C(=C\C(F)(F)F)S(=O)(=O)c2ccccc2)cc1`, the values for the IC50 in [31], in data set [33] and in [34] were 400 nM, 400 nM and 200 nM, respectively. In data set [32], the IC50 at 48 h turned out to be 200 nM.

For the compound `O=S(=O)(/C=C/c1ccc(O)c(O)c1)CCCC1CCCC1`, the Kp in data set [35] is 0.316. Further, in data set [36], the Activity was 4.36. For the same compound, in data set [37], 1600 nM corresponded to half-maximal inhibition (IC50).

For `CCCN1CCN(C(=O)N[C@@H](Cc2ccccc2)C(=O)N[C@H](/C=C/S(=O)(=O)c2ccccc2)CCc2ccccc2)CC1`, the IC50 in data set [2] and in [3] was 0.04 nM each time.

As for `CCN1CCN(C(=O)N[C@@H](Cc2ccccc2)C(=O)N[C@H](/C=C/S(=O)(=O)c2ccccc2)CCc2ccccc2)CC1`, the IC50 in data set [2] and in [3] was 0.04 nM in each case.

`O=C(N[C@H](CO)[C@H](O)c1ccc([N+](=O)[O-])cc1)C(Cl)Cl` [CHLORAMPHENICOL]: the Activity in [26] and in data set [27] was above 35 mm throughout.

In data set [10], `COc1cc(OC)c(/C=C/S(=O)(=O)Cc2ccc(OC)c(NCC(=O)O)c2)c(OC)c1` [RIGOSERTIB SODIUM] registered an IC50 of 10 nM.

Turning to `COc1cc(/C=C/S(=O)(=O)c2ccccc2)cc(OC)c1OC`, the half-maximal inhibitory concentration (IC50) was determined as 54600 nM in [38], 30400 nM in [39] and 33500 nM in [40].
